Test results: the supplement of paper PMC12533247

Columns and labels:
[1] = system: primary dermal fibroblasts; test: % change in live cells vs DMSO control; higher = less cytotoxic; conditions: time (h post treatment): 48
Description: (§1)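 Cytotoxicity in uninfected 2D primary donor keratinocytes (20 h post treatment) and fibroblasts (48 h post treatment), measured with NucSpot live/dead dyes on IncuCyte. Live cells are normalised to the 0.2% DMSO control and shown as % change. Three biological replicates for each of donors 3, 4 and 5.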

primary keratinocytes = test: as above; conditions: time (h post treatment): 20
Description: as §1

[2] = system: HSV-1 K26-GFP infected primary human skin cells; test: % change of HSV-1 GFP signal vs untreated infected cells; higher = less antiviral inhibition; conditions: cell type: primary dermal fibroblasts, time (h post infection): 48
Description: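 2D primary donor-derived dermal fibroblasts infected with GFP-HSV-1 K26 at MOI 1, treated 1 h later with compound dilutions and read at 48 hpi on IncuCyte. GFP integrated intensity is normalised to mock-infected and untreated infected wells (% change; -100 = full inhibition).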

[3] = system: HSV-1 K26-GFP infected 3D skin equivalent; test: % change of tdTomato fibroblast signal relative to infected DMSO control; higher = higher signal (negative = inhibition / toxicity); conditions: time (h post infection): 48
Description: (§2)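 Triplicate dose-response (0.04 to 10 uM) of 11 top compounds in 3D bioprinted skin equivalents (submerged and ALI models) infected with GFP-HSV-1 K26 at MOI 0.1 and fixed at 48 hpi. GFP (virus) and tdTomato (fibroblast viability) signals are normalised to per-plate controls.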

[4] = system: HSV-1 K26-GFP infected 3D skin equivalent; test: % activity on HSV-1 GFP signal (0 = infected DMSO control, -100 = uninfected control); higher = higher signal (negative = inhibition / toxicity); conditions: time (h post infection): 48
Description: as §2

O=C(Nc1ccc([N+](=O)[O-])cc1Cl)c1cc(Cl)ccc1O [Niclosamide]
Conditions | % activity on HSV-1 GFP signal [%] | % change in live cells [%] | % change of HSV-1 GFP signal [%] | % change of tdTomato fibroblast signal [%]
[1], 0.082305 µM, donor: 3 | – | -18.7 | – | –
[1], 0.082305 µM, donor: 4 | – | 3 | – | –
[1], 0.082305 µM, donor: 5 | – | 5 | – | –
[1], 0.246914 µM, donor: 3 | – | -17 | – | –
[1], 0.246914 µM, donor: 4 | – | 2.67 | – | –
[1], 0.246914 µM, donor: 5 | – | 1.67 | – | –
[1], 0.740741 µM, donor: 3 | – | -16 | – | –
[1], 0.740741 µM, donor: 4 | – | -0.333 | – | –
[1], 0.740741 µM, donor: 5 | – | -1 | – | –
[1], 2.22222 µM, donor: 3 | – | -24.7 | – | –
[1], 2.22222 µM, donor: 4 | – | -2 | – | –
[1], 2.22222 µM, donor: 5 | – | -2.67 | – | –
[1], 6.66667 µM, donor: 3 | – | -35 | – | –
[1], 6.66667 µM, donor: 4 | – | -9 | – | –
[1], 6.66667 µM, donor: 5 | – | -26 | – | –
[1], 20 µM, donor: 3 | – | -49.7 | – | –
[1], 20 µM, donor: 4 | – | -41.7 | – | –
[1], 20 µM, donor: 5 | – | -63 | – | –
[1], 60 µM, donor: 3 | – | -56 | – | –
[1], 60 µM, donor: 4 | – | -38 | – | –
[1], 60 µM, donor: 5 | – | -74.33 | – | –
[2], 0.003 µM, donor: 3 | – | – | 15.6 | –
[2], 0.003 µM, donor: 4 | – | – | -6.77 | –
[2], 0.0091 µM, donor: 3 | – | – | 8.69 | –
[2], 0.0091 µM, donor: 4 | – | – | -8.38 | –
[2], 0.0274 µM, donor: 3 | – | – | 9.83 | –
[2], 0.0274 µM, donor: 4 | – | – | -13.9 | –
[2], 0.0823 µM, donor: 3 | – | – | -4.14 | –
[2], 0.0823 µM, donor: 4 | – | – | -18.7 | –
[2], 0.2469 µM, donor: 3 | – | – | -45.2 | –
[2], 0.2469 µM, donor: 4 | – | – | -48.5 | –
[2], 0.7407 µM, donor: 3 | – | – | -76.3 | –
[2], 0.7407 µM, donor: 4 | – | – | -63.1 | –
[2], 2.2222 µM, donor: 3 | – | – | -89.3 | –
[2], 2.2222 µM, donor: 4 | – | – | -95.5 | –
[2], 6.6667 µM, donor: 3 | – | – | -99.57 | –
[2], 6.6667 µM, donor: 4 | – | – | -99.828 | –
[2], 20 µM, donor: 3 | – | – | -100.1 | –
[2], 20 µM, donor: 4 | – | – | -99.921 | –
[2], 60 µM, donor: 3 | – | – | -100.1 | –
[2], 60 µM, donor: 4 | – | – | -99.98 | –
[3], 0.041152 µM, model: ALI | – | – | – | 8.37
[3], 0.041152 µM, model: submerged | – | – | – | -8.01
[3], 0.123457 µM, model: ALI | – | – | – | 0.996
[3], 0.123457 µM, model: submerged | – | – | – | -14.3
[3], 0.37037 µM, model: ALI | – | – | – | -9.97
[3], 0.37037 µM, model: submerged | – | – | – | -34
[3], 1.111111 µM, model: ALI | – | – | – | -7.62
[3], 1.111111 µM, model: submerged | – | – | – | -44.6
[3], 3.33333 µM, model: ALI | – | – | – | -10.3
[3], 3.33333 µM, model: submerged | – | – | – | -44.5
[3], 10 µM, model: ALI | – | – | – | -8.58
[3], 10 µM, model: submerged | – | – | – | -47.05
[4], 0.041152 µM, model: ALI | -0.742 | – | – | –
[4], 0.041152 µM, model: submerged | -3.85 | – | – | –
[4], 0.123457 µM, model: ALI | -58.6 | – | – | –
[4], 0.123457 µM, model: submerged | -3.15 | – | – | –
[4], 0.37037 µM, model: ALI | -102 | – | – | –
[4], 0.37037 µM, model: submerged | -59.6 | – | – | –
[4], 1.111111 µM, model: ALI | -99.3 | – | – | –
[4], 1.111111 µM, model: submerged | -88.3 | – | – | –
[4], 3.33333 µM, model: ALI | -103 | – | – | –
[4], 3.33333 µM, model: submerged | -92.9 | – | – | –
[4], 10 µM, model: ALI | -98.7 | – | – | –
[4], 10 µM, model: submerged | -97.1 | – | – | –
primary keratinocytes, 0.082305 µM, donor: 3 | – | -8 | – | –
primary keratinocytes, 0.082305 µM, donor: 4 | – | -13 | – | –
primary keratinocytes, 0.082305 µM, donor: 5 | – | -11.7 | – | –
primary keratinocytes, 0.246914 µM, donor: 3 | – | -11.7 | – | –
primary keratinocytes, 0.246914 µM, donor: 4 | – | -20.7 | – | –
primary keratinocytes, 0.246914 µM, donor: 5 | – | -11.3 | – | –
primary keratinocytes, 0.740741 µM, donor: 3 | – | -30 | – | –
primary keratinocytes, 0.740741 µM, donor: 4 | – | -20.7 | – | –
primary keratinocytes, 0.740741 µM, donor: 5 | – | -8 | – | –
primary keratinocytes, 2.22222 µM, donor: 3 | – | -14.3 | – | –
primary keratinocytes, 2.22222 µM, donor: 4 | – | -15.3 | – | –
primary keratinocytes, 2.22222 µM, donor: 5 | – | -13.3 | – | –
primary keratinocytes, 6.66667 µM, donor: 3 | – | -23 | – | –
primary keratinocytes, 6.66667 µM, donor: 4 | – | -13 | – | –
primary keratinocytes, 6.66667 µM, donor: 5 | – | -9 | – | –
primary keratinocytes, 20 µM, donor: 3 | – | -61.7 | – | –
primary keratinocytes, 20 µM, donor: 4 | – | -25.7 | – | –
primary keratinocytes, 20 µM, donor: 5 | – | -26.7 | – | –
primary keratinocytes, 60 µM, donor: 3 | – | -68 | – | –
primary keratinocytes, 60 µM, donor: 4 | – | -69.7 | – | –
primary keratinocytes, 60 µM, donor: 5 | – | -54.7 | – | –
